Values of other authors, collected in US20080317845A1, “Duloxetine Formulation” (priority 2007, published 2008).
Where a name gives a salt, the structure may show the parent alone.

CNCC[C@H](Oc1cccc2ccccc12)c1cccs1 [duloxetine, (+)-(S)-N-methyl-y-(1-naphthyloxy)-2-thiophenepropylamine hydrochloride]
stability in acidic media: unstable
